Patent US20130109721A1, “FAAH Inhibitors” (Ironwood Pharmaceuticals, Inc., priority 2009, published 2013)
pIC50: −log10 of the molar value.

Biological target: T1, FAAH (Rattus norvegicus, UniProt P97612)
T1 construct: For assay of FAAH activity in rat brain membrane (RBM) homogenates; tissue Charles River; host or cells: rat (CD strain) brain membrane homogenate
T1 sequence (P97612 1-579): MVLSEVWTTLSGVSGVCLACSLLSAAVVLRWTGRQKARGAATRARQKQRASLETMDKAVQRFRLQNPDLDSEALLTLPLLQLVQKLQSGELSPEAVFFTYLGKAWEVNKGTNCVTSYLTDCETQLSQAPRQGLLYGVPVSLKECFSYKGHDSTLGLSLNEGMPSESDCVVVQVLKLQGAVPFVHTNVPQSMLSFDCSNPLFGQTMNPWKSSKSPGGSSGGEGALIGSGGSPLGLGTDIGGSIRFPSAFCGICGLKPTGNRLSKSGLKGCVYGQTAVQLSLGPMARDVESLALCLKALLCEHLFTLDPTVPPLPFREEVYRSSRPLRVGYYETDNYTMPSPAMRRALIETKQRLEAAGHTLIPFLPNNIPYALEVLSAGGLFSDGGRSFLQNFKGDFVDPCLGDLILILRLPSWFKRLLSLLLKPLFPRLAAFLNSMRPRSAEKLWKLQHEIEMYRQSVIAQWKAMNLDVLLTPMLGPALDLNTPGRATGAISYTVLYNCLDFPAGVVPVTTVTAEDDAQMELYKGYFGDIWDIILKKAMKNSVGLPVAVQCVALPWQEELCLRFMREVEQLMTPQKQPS
Assay: FAAH inhibition, rat brain membrane homogenate assay
Assay type: biochemical
Details: average; FAAH extracted from rat brain homogenate; read-out: Rat Brian Extract IC50
Method: Adult rats (Charles River CD strain, female, 200 g) were anaesthetized with isofluorane and rapidly decapitated. Each brain was quickly removed and chilled in tubes (3 brains per tube) on ice. About 25 mL of “homogenization buffer” (20 mM HEPES buffer, pH 7.0, with 1 mM MgCl2) was added to 15 to 20 g of brain. The brains were homogenized on ice for 1 minute using an Omni GLH homogenizer (Omni International, Marietta, Ga.). The homogenates were then transferred to three centrifuge tubes and centrifuged at 36,500 g for 20 minutes at 4° C. The supernatant was discarded and each pellet was re-suspended in 25 mL homogenization buffer. The re-suspended material was again centrifuged (36,500 g, 20 minutes at 4° C.). Pellets were combined by resuspension in 10 mL of homogenization buffer and incubated in a 37° C. water bath for 15 minutes. The tubes were then placed on ice for 5 minutes followed by centrifugation at 36,500 g for 20 minutes at 4° C. The supernatant was discarded and the membrane pellets were then re-suspended in 40 mL of “resuspension buffer” (50 mM Tris-HCl buffer, pH 7.4, containing 1 mM EDTA and 3 mM MgCl2). A Bradford Protein assay was performed to determine protein concentration. The protein was aliquotted into screw cap Cryo tubes each containing ˜400 μL, flash frozen in liquid nitrogen and stored at −80° C. until used for the assay. A similar protocol was used to obtain brain membrane homogenates from mice.
FAAH activity was assayed in the respective homogenates described herein (Rat brain, Mouse brain or Human brain) for certain exemplary substrate compounds using a modification of the method of Omeir et al. (1995 Life Sci 56:1999) and Fowler et al. (1997 J. Pharmacol Exp Ther 283:729). For assay of FAAH activity in rat brain membrane (RBM) homogenates, RBM homogenates (7 μg protein in 20 μL final volume of 10 mM Tris pH 6.5) were mixed with 180 μL of a mixture of the following: 2.0 μM unlabelled anandamide, 0.03 μCi radio labeled anandamide [ethanolamine 1-^3H] (40-60 Cis/mmol, product number ART-626, American Radiolabeled Chemicals, St. Louis, Mo.), 1 mg/mL Bovine Serum Albumin (fatty acid-free BSA, electrophoresis grade, Sigma, St. Louis, Mo.), 10 mM Tris-HCl (pH 6.5), and 1 mM EDTA in the presence and absence of test compounds (vehicle was DMSO at a final concentration of 1%) and incubated for 10 minutes at 37° C. Samples were placed on ice to terminate the reactions.
^3H-ethanolamine product and un-reacted ^3H-anandamide substrate were then separated either: (1) by using chloroform/methanol extraction or (2) by passing the reaction mixture through a glass fiber filter containing activated charcoal. Samples were extracted with chloroform/methanol by adding 0.4 mL of chloroform/methanol (1:1 v/v), vigorously mixing the samples, and separating the aqueous and organic phases by centrifugation. Radioactivity (corresponding to FAAH-catalyzed breakdown of ^3H-anandamide) found in aliquots (0.2 mL) of the aqueous phase was determined by liquid scintillation counting with quench correction. IC50 values were determined as described by Jonsson et al. (2001 Br. J. Pharmacol. 133:1263). Alternatively, reactions were purified using a modification of the solid-phase extraction method described by Wilson et al (2003 Anal. Biochem. 318:270). This method was modified as follows: after reactions were incubated at 37° C. for 10 minutes and chilled on ice, the reaction mixtures were acidified by adding 10 μL of sodium phosphate solution [0.5M (pH 2.0)]. Next, 90 μL aliquots of the acidified reaction mixtures were applied to activated charcoal (that had been previously washed with methanol as described by Wilson et al. (supra)) containing 80 μL of water on top of a glass fiber filter, centrifuged, and the radioactivity in the eluate was counted as described previously by Wilson et al. (supra). […]

Row | SMILES | pIC50
1 | COc1cc(NC(=O)C(=O)c2c3c(n(Cc4ccc(Cl)cc4)c2C)CCCC3)ccn1 [Compound I-18, 2-(1-(4-chlorobenzyl)-2-methyl-4,5,6,7-tetrahydro-1H-indol-3-yl)-N-(2-methoxypyridin-4-yl)-2-oxoacetamide] | 5.84
2 | Cc1c(C(=O)C(=O)Nc2cccc(Cl)c2)c2c(n1Cc1ccc(Cl)cc1)CCCC2 [Compound I-16, 2-(1-(4-chlorobenzyl)-2-methyl-4,5,6,7-tetrahydro-1H-indol-3-yl)-N-(3-chlorophenyl)-2-oxoacetamide] | 8.40
3 | Cc1c(C(=O)C(=O)Nc2cccc(Cl)c2)c(-c2ccccc2)c(C)n1Cc1ccc(Cl)cc1 [Compound I-20, 2-(1-(4-chlorobenzyl)-2,5-dimethyl-4-phenyl-1H-pyrrol-3-yl)-N-(3-chlorophenyl)-2-oxoacetamide] | 5.98
4 | COc1cc(NC(=O)C(=O)c2cc(C)n(Cc3ccc(Cl)cc3Cl)c2C)ccn1 [Compound I-21, 2-(1-(2,4-dichlorobenzyl)-2,5-dimethyl-1H-pyrrol-3-yl)-N-(2-methoxypyridin-4-yl)-2-oxoacetamide] | 9.00
5 | COc1cc(NC(=O)C(=O)c2c(-c3ccccc3)c(C)n(Cc3ccc(Cl)cc3)c2C)ccn1 [Compound I-19, 2-(1-(4-chlorobenzyl)-2,5-dimethyl-4-phenyl-1H-pyrrol-3-yl)-N-(2-methoxypyridin-4-yl)-2-oxoacetamide] | 8.30

Results, then the molecule that gave them:

Row | pIC50 | SMILES
6 | 5.75 | COc1ccc(Cn2c(C)cc(C(=O)C(=O)Nc3ccnc(OC)c3)c2C)cc1 [Compound I-22, 2-(1-(4-methoxybenzyl)-2,5-dimethyl-1H-pyrrol-3-yl)-N-(2-methoxypyridin-4-yl)-2-oxoacetamide]
7 | 6.73 | COc1cc(NC(=O)C(=O)c2cc(C)n(Cc3ccc(Cl)cc3)c2-c2ccccc2)ccn1 [Compound I-23, 2-(1-(4-chlorobenzyl)-5-methyl-2-phenyl-1H-pyrrol-3-yl)-N-(2-methoxypyridin-4-yl)-2-oxoacetamide]
8 | 7.55 | Cc1c(C(=O)C(=O)Nc2cccc(Cl)c2)cc(-c2ccccc2)n1Cc1ccc(Cl)cc1 [Compound I-25, 2-(1-(4-chlorobenzyl)-2-methyl-5-phenyl-1H-pyrrol-3-yl)-N-(3-chlorophenyl)-2-oxoacetamide]
9 | < 5.30 | Cc1cc(C(=O)C(=O)Nc2cccc(Cl)c2)c(-c2ccccc2)n1Cc1ccc(Cl)cc1 [Compound I-24, 2-(1-(4-chlorobenzyl)-5-methyl-2-phenyl-1H-pyrrol-3-yl)-N-(3-chlorophenyl)-2-oxoacetamide]
10 | < 5.30 | Cc1c(C(=O)C(=O)Nc2ccncc2)cc(-c2ccccc2)n1Cc1ccc(Cl)cc1 [Compound I-26, 2-(1-(4-chlorobenzyl)-2-methyl-5-phenyl-1H-pyrrol-3-yl)-2-oxo-N-(pyridin-4-yl)acetamide]
